The experiment deals with T1, MAGL (Homo sapiens, UniProt Q99685).
T1 sequence (Q99685 1-303): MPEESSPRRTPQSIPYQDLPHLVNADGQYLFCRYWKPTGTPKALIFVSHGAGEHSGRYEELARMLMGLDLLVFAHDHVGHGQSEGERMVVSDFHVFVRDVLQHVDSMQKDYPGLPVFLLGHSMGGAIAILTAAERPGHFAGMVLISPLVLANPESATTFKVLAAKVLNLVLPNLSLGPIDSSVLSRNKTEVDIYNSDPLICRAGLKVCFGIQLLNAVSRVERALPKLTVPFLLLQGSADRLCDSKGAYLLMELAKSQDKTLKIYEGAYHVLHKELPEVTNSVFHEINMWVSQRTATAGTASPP
Briefly: 2-AG assay (MAGL inhibitory activity, hydrolysis of 2-arachidonoylglycerol to arachidonic acid followed by mass spectrometry). Conditions: 8 μM 2-arachidonoylglycerol, 15 min pre-incubation, 30 min incubation at RT, RapidFire MS readout. The format is biochemical. In short, it runs like this:
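Arachidonic acid released from 8 μM 2-arachidonoylglycerol was quantified by online SPE triple-quadrupole MS (negative ESI, 303.1→259.1), normalised to d8-arachidonic acid internal standard. Reaction ran 30 min at RT after 15 min RT compound pre-incubation with […] MAGL in TRIS/EDTA/Tween-20 buffer, 2.5% DMSO.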
The term IC50 denotes the concentration that inhibits the measured activity by half. Low readings indicate greater potency, high ones weaker potency. `O=C(N1CCC(CNS(=O)(=O)c2ccc(OC(F)(F)F)cc2)CC1)N1CC2(CC(n3cnc(C4CC4)n3)C2)C1` [Example 259, N-[[1-[6-(3-cyclopropyl-1,2,4-triazol-1-yl)-2-azaspiro[3.3]heptane-2-carbonyl]-4-piperidyl]methyl]-4-(trifluoromethoxy) benzenesulfonamide] showed an IC50 of 21.8 nM.

In turn, `O=C(N1CC2(CC(n3cnc(C4CC4)n3)C2)C1)N1CC2(C1)CN(S(=O)(=O)NC1(C(F)(F)F)CC1)C2` [Example 260, 6-[6-(3-cyclopropyl-1,2,4-triazol-1-yl)-2-azaspiro[3.3]heptane-2-carbonyl]-N-[1-(trifluoromethyl)cyclopropyl]-2,6-diazaspiro[3.3]heptane-2-sulfonamide] returned an IC50 of 23.1 nM. For the compound `O=C(N1CC(c2ccn(CC(F)(F)F)c(=O)c2)C1)N1CC2(CC(n3cnc(C4CC4)n3)C2)C1` [Example 261, 4-[1-[6-(3-cyclopropyl-1,2,4-triazol-1-yl)-2-azaspiro[3.3]heptane-2-carbonyl]azetidin-3-yl]-1-(2,2,2-trifluoroethyl)pyridin-2-one], the IC50 was determined as 24.2 nM.

The compound `O=C(N1CC(NCc2ccc(C(F)(F)F)cc2F)C1)N1CC2(CC(n3cnc(C4CC4)n3)C2)C1` [Example 262, [6-(3-cyclopropyl-1,2,4-triazol-1-yl)-2-azaspiro[3.3]heptan-2-yl]-[3-[[2-fluoro-4-(trifluoromethyl)phenyl]methylamino]azetidin-1-yl]methanone] showed an IC50 of 25.2 nM. Turning to `O=C(N1CC2(CC(n3cnc(C4CC4)n3)C2)C1)N1CC2(C1)CN(S(=O)(=O)c1cnccc1C(F)(F)F)C2` [Example 263, [6-(3-cyclopropyl-1,2,4-triazol-1-yl)-2-azaspiro[3.3]heptan-2-yl]-[2-[[4-(trifluoromethyl)-3-pyridyl]sulfonyl]-2,6-diazaspiro[3.3]heptan-6-yl]methanone], the IC50 was found to be 27.2 nM. For `COC(=O)c1ccccc1S(=O)(=O)N1CC2(CN(C(=O)N3CC4(CC(n5cnc(C6CC6)n5)C4)C3)C2)C1` [Example 264, methyl 2-[[6-[6-(3-cyclopropyl-1,2,4-triazol-1-yl)-2-azaspiro[3.3]heptane-2-carbonyl]-2,6-diazaspiro[3.3]heptan-2-yl]sulfonyl]benzoate], the IC50 came to 27.2 nM. With `O=C(N1CC2(CC(n3cnc(C4CC4)n3)C2)C1)N1CC2(C1)CN(S(=O)(=O)Cc1ccccc1)C2` [Example 265, (2-benzylsulfonyl-2,6-diazaspiro[3.3]heptan-6-yl)-[6-(3-cyclopropyl-1,2,4-triazol-1-yl)-2-azaspiro[3.3]heptan-2-yl]methanone], the concentration for half-maximal inhibition (IC50) came to 27.5 nM. Turning to `CS(=O)(=O)c1ccc(COC2CN(C(=O)N3CC4(CC(n5cnc(C6CC6)n5)C4)C3)C2)c(F)c1` [Example 266, [6-(3-cyclopropyl-1,2,4-triazol-1-yl)-2-azaspiro[3.3]heptan-2-yl]-[3-[(2-fluoro-4-methylsulfonyl-phenyl)methoxy]azetidin-1-yl]methanone], the IC50 was 29 nM. With `O=C(N1CC2(CC(Nc3ccc(C(F)(F)F)nn3)C2)C1)N1CC2(CC(n3cnc(C4CC4)n3)C2)C1` [Example 267, [6-(3-cyclopropyl-1,2,4-triazol-1-yl)-2-azaspiro[3.3]heptan-2-yl]-[6-[[6-(trifluoromethyl)pyridazin-3-yl]amino]-2-azaspiro[3.3]heptan-2-yl]methanone], the IC50 came out at 30.7 nM. `O=C(N1CC2(CC(n3cnc(C4CC4)n3)C2)C1)N1CC2(C1)CN(S(=O)(=O)c1cncc(C(F)(F)F)c1)C2` [Example 268, [6-(3-cyclopropyl-1,2,4-triazol-1-yl)-2-azaspiro[3.3]heptan-2-yl]-[2-[[5-(trifluoromethyl)-3-pyridyl]sulfonyl]-2,6-diazaspiro[3.3]heptan-6-yl]methanone] came in with a concentration for half-maximal inhibition (IC50) of 32.1 nM. Compound `CC1(NS(=O)(=O)N2CC3(CN(C(=O)N4CC5(CC(n6cnc(C7CC7)n6)C5)C4)C3)C2)CC1` [Example 269, 6-[6-(3-cyclopropyl-1,2,4-triazol-1-yl)-2-azaspiro[3.3]heptane-2-carbonyl]-N-(1-methylcyclopropyl)-2,6-diazaspiro[3.3]heptane-2-sulfonamide] displayed an IC50 of 32.2 nM. The compound `O=C(N1CC(Oc2ccc(C(F)(F)F)nc2)C1)N1CC2(CC(n3cnc(C4CC4)n3)C2)C1` [Example 270, (6-(3-cyclopropyl-1H-1,2,4-triazol-1-yl)-2-azaspiro[3.3]heptan-2-yl)(3-((6-(trifluoromethyl)pyridin-3-yl)oxy)azetidin-1-yl)methanone] came in with an IC50 of 32.7 nM. `O=C(N1CCC(CNS(=O)(=O)c2ccc(Cl)cc2)CC1)N1CC2(CC(n3cnc(C4CC4)n3)C2)C1` [Example 271] came in with an IC50 of 33.8 nM. `O=C(N1CC2(CC(n3cnc(C4CC4)n3)C2)C1)N1CC2(C1)CN(S(=O)(=O)CCc1ccc(F)cc1)C2` [Example 272, [6-(3-cyclopropyl-1,2,4-triazol-1-yl)-2-azaspiro[3.3]heptan-2-yl]-[2-[2-(4-fluorophenyl)ethylsulfonyl]-2,6-diazaspiro[3.3]heptan-6-yl]methanone] returned a concentration for half-maximal inhibition (IC50) of 34.3 nM. As for `O=C(N1CC2(CC(n3cnc(C4CC4)n3)C2)C1)N1CC2(C1)CN(S(=O)(=O)c1ccc(F)c(F)c1)C2` [Example 273, [6-(3-cyclopropyl-1,2,4-triazol-1-yl)-2-azaspiro[3.3]heptan-2-yl]-[2-(3,4-difluorophenyl)sulfonyl-2,6-diazaspiro[3.3]heptan-6-yl]methanone], the figure is 34.4 nM. As for `O=C(N1CC(Oc2ccnc(C3CC3)n2)C1)N1CC2(CC(n3cnc(C4CC4)n3)C2)C1` [Example 274, [3-(2-cyclopropylpyrimidin-4-yl)oxyazetidin-1-yl]-[6-(3-cyclopropyl-1,2,4-triazol-1-yl)-2-azaspiro[3.3]heptan-2-yl]methanone], the figure is 34.8 nM; as for `O=C(c1ccc(F)cc1C(F)(F)F)N1CC2(C1)CN(C(=O)N1CC3(CC(n4cnc(C5CC5)n4)C3)C1)C2` [Example 275, [2-[6-(3-cyclopropyl-1,2,4-triazol-1-yl)-2-azaspiro[3.3]heptane-2-carbonyl]-2,6-diazaspiro[3.3]heptan-6-yl]-[4-fluoro-2-(trifluoromethyl)phenyl] methanone], 35.3 nM; as for `O=C(N1CC(CNS(=O)(=O)c2ccc(C(F)(F)F)cc2)C1)N1CC2(CC(n3cnc(C4CC4)n3)C2)C1` [Example 276, N-[[1-[6-(3-cyclopropyl-1,2,4-triazol-1-yl)-2-azaspiro[3.3]heptane-2-carbonyl]azetidin-3-yl]methyl]-4-(trifluoromethyl)benzene-sulfonamide], 35.7 nM. The compound `O=C(N1CC2(CC(NC(=O)C3(C(F)(F)F)CC3)C2)C1)N1CC2(CC(n3cnc(C4CC4)n3)C2)C1` [Example 277, N-[2-[6-(3-cyclopropyl-1,2,4-triazol-1-yl)-2-azaspiro[3.3]heptane-2-carbonyl]-2-azaspiro[3.3]heptan-6-yl]-1-(trifluoromethyl) cyclo-propanecarboxamide] showed an IC50 of 37.2 nM. In the case of `O=C(N1CC2(CC(n3cnc(C4CC4)n3)C2)C1)N1CC2(C1)CN(S(=O)(=O)c1cnccc1Cl)C2` [Example 278, [2-[(4-chloro-3-pyridyl)sulfonyl]-2,6-diazaspiro[3.3]heptan-6-yl]-[6-(3-cyclopropyl-1,2,4-triazol-1-yl)-2-azaspiro[3.3]heptan-2-yl]methanone], the half-inhibitory concentration (IC50) was 37.3 nM. Regarding `CC(C)(C(=O)O)c1cccc(OC2CN(C(=O)N3CC4(CC(n5cnc(C6CC6)n5)C4)C3)C2)c1` [Example 279, 2-[3-[1-[6-(3-cyclopropyl-1,2,4-triazol-1-yl)-2-azaspiro[3.3]heptane-2-carbonyl]azetidin-3-yl]oxyphenyl]-2-methyl-propanoic acid], 38 nM corresponded to half-maximal inhibition (IC50).

Compound `O=C(N1CC(Oc2ccc(C3CC3)nn2)C1)N1CC2(CC(n3cnc(C4CC4)n3)C2)C1` [Example 280, [3-(6-cyclopropylpyridazin-3-yl)oxyazetidin-1-yl]-[6-(3-cyclopropyl-1,2,4-triazol-1-yl)-2-azaspiro[3.3]heptan-2-yl]methanone] returned a half-maximal inhibitory concentration (IC50) of 39.4 nM. `Cc1noc(C)c1S(=O)(=O)N1CC2(CN(C(=O)N3CC4(CC(n5cnc(C6CC6)n5)C4)C3)C2)C1` [Example 281, [6-(3-cyclopropyl-1,2,4-triazol-1-yl)-2-azaspiro[3.3]heptan-2-yl]-[2-(3,5-dimethylisoxazol-4-yl)sulfonyl-2,6-diazaspiro[3.3]heptan-6-yl]methanone] came in with an IC50 of 41.3 nM. In the case of `COc1ccc(S(=O)(=O)N2CC3(CN(C(=O)N4CC5(CC(n6cnc(C7CC7)n6)C5)C4)C3)C2)cc1` [Example 282, [6-(3-cyclopropyl-1,2,4-triazol-1-yl)-2-azaspiro[3.3]heptan-2-yl]-[2-(4-methoxyphenyl)sulfonyl-2,6-diazaspiro[3.3]heptan-6-yl]methanone], the concentration for half-maximal inhibition (IC50) turned out to be 44.6 nM. Compound `O=C(N1CC(Oc2ccnc(C(F)(F)F)n2)C1)N1CC2(CC(n3cnc(C4CC4)n3)C2)C1` [Example 283, [6-(3-cyclopropyl-1,2,4-triazol-1-yl)-2-azaspiro[3.3]heptan-2-yl]-[3-[2-(trifluoromethyl)pyrimidin-4-yl]oxyazetidin-1-yl]methanone] returned an IC50 of 48.3 nM. On to `O=C(N1CC2(CC(n3cnc(C4CC4)n3)C2)C1)N1CC2(C1)CN(S(=O)(=O)N1CCCC1)C2` [Example 284, [6-(3-cyclopropyl-1,2,4-triazol-1-yl)-2-azaspiro[3.3]heptan-2-yl]-(2-pyrrolidin-1-ylsulfonyl-2,6-diazaspiro[3.3]heptan-6-yl)methanone], for which the IC50 was 49.9 nM.

The values are drawn from patent publication US20240199587A1, “HETEROCYCLIC COMPOUNDS” (Hoffmann-La Roche Inc., priority 2021, published 2024).
